PubChem BioAssay AID2060895 (Molecular Pharmacology Branch, DTP, NCI, 2025)

Tested on: PDC 899932-113-R3-J6 complex spheroid viability
Experiment: Anticancer human tumor 899932-113-R3-J6-PDC patient-derived melanoma cell line growth inhibition [RAS]
Conditions: for IC50: curve of first compound; for viability, T/C: stronger effect = lower value
Method in brief: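 Multi-cell-type spheroids: tumor cells plus HUVEC endothelial cells and mesenchymal stem cells. RAS-pathway inhibitors were combined with targeted agents, each dosed in half-log steps down from clinical Cmax, or from 10 microM when Cmax was unknown.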

[1] = second compound 0.000949 µM, first compound 0.00316 µM
[2] = second compound 0.000949 µM, first compound 0.01 µM
[3] = second compound 0.000949 µM, first compound 0.0316 µM
[4] = second compound 0.000949 µM, first compound 0.1 µM
[5] = second compound 0.000949 µM, first compound 0.316 µM
[6] = second compound 0.000949 µM, first compound 1 µM
[7] = second compound 0.003 µM, first compound 0.00316 µM
[8] = second compound 0.003 µM, first compound 0.01 µM
[9] = second compound 0.003 µM, first compound 0.0316 µM
[10] = second compound 0.003 µM, first compound 0.1 µM
[11] = second compound 0.003 µM, first compound 0.316 µM
[12] = second compound 0.003 µM, first compound 1 µM
[13] = second compound 0.00949 µM, first compound 0.00316 µM
[14] = second compound 0.00949 µM, first compound 0.01 µM
[15] = second compound 0.00949 µM, first compound 0.0316 µM
[16] = second compound 0.00949 µM, first compound 0.1 µM
[17] = second compound 0.00949 µM, first compound 0.316 µM
[18] = second compound 0.00949 µM, first compound 1 µM
[19] = second compound 0.03 µM, first compound 0.00316 µM
[20] = second compound 0.03 µM, first compound 0.01 µM
[21] = second compound 0.03 µM, first compound 0.0316 µM
[22] = second compound 0.03 µM, first compound 0.1 µM
[23] = second compound 0.03 µM, first compound 0.316 µM
[24] = second compound 0.03 µM, first compound 1 µM
[25] = second compound 0.0949 µM, first compound 0.00316 µM
[26] = second compound 0.0949 µM, first compound 0.01 µM
[27] = second compound 0.0949 µM, first compound 0.0316 µM
[28] = second compound 0.0949 µM, first compound 0.1 µM
[29] = second compound 0.0949 µM, first compound 0.316 µM
[30] = second compound 0.0949 µM, first compound 1 µM
[31] = second compound 0.3 µM, first compound 0.00316 µM
[32] = second compound 0.3 µM, first compound 0.01 µM
[33] = second compound 0.3 µM, first compound 0.0316 µM
[34] = second compound 0.3 µM, first compound 0.1 µM
[35] = second compound 0.3 µM, first compound 0.316 µM
[36] = second compound 0.3 µM, first compound 1 µM
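Wherever viability, T/C is given: spheroids exposed to agents for seven days before readout; 100% = DMSO vehicle control wells.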

C=CC(=O)N1CCN(c2nc(OCC3CCCN3C)nc3c(F)c(-c4nc(N)cc(C)c4C(F)(F)F)c(Cl)cc23)C(C)C1 (stereo unspecified) + CCn1c(-c2cc(N3CCN(C)CC3)cnc2C(C)OC)c2c3cc(ccc31)-c1csc(n1)CC(NC(=O)C1CC1C)C(=O)N1CCCC(N1)C(=O)OCC(C)(C)C2
IC50 (second compound 0.000949 µM): > 1000 nM
IC50 (second compound 0.003 µM): < 3.16 nM
IC50 (second compound 0.00949 µM): < 3.16 nM
IC50 (second compound 0.03 µM): < 3.16 nM
IC50 (second compound 0.0949 µM): < 3.16 nM
IC50 (second compound 0.3 µM): < 3.16 nM
viability, T/C [1]: 73.2%
viability, T/C [2]: 71.3%
viability, T/C [3]: 75.9%
viability, T/C [4]: 76.8%
viability, T/C [5]: 74%
viability, T/C [6]: 78.2%
viability, T/C [7]: 39.8%
viability, T/C [8]: 35.6%
viability, T/C [9]: 36.5%
viability, T/C [10]: 37.7%
viability, T/C [11]: 42.3%
viability, T/C [12]: 34.5%
viability, T/C [13]: 3.88%
viability, T/C [14]: 4.28%
viability, T/C [15]: 6.59%
viability, T/C [16]: 5.83%
viability, T/C [17]: 4.76%
viability, T/C [18]: 5.5%
viability, T/C [19]: 2.75%
viability, T/C [20]: 2.91%
viability, T/C [21]: 4.47%
viability, T/C [22]: 2.82%
viability, T/C [23]: 2.96%
viability, T/C [24]: 2.4%
viability, T/C [25]: 2.13%
viability, T/C [26]: 2.76%
viability, T/C [27]: 2.86%
viability, T/C [28]: 1.94%
viability, T/C [29]: 2.58%
viability, T/C [30]: 2.69%
viability, T/C [31]: 2.09%
viability, T/C [32]: 2.1%
viability, T/C [33]: 3.32%
viability, T/C [34]: 3.11%
viability, T/C [35]: 2.88%
viability, T/C [36]: 2.36%

CC1(C)CCC(Nc2ncc(C(F)(F)F)c(-c3c[nH]c4c(P(C)(C)=O)c(C#N)ccc34)n2)CN1 (stereo unspecified) + CCn1c(-c2cc(N3CCN(C)CC3)cnc2C(C)OC)c2c3cc(ccc31)-c1csc(n1)CC(NC(=O)C1CC1C)C(=O)N1CCCC(N1)C(=O)OCC(C)(C)C2
IC50 (second compound 0.000949 µM): 3.34 nM
IC50 (second compound 0.003 µM): < 0.949 nM
IC50 (second compound 0.00949 µM): < 0.949 nM
IC50 (second compound 0.03 µM): < 0.949 nM
IC50 (second compound 0.0949 µM): < 0.949 nM
IC50 (second compound 0.3 µM): < 0.949 nM
viability, T/C (second compound 0.000949 µM, first compound 0.000949 µM): 64.6%
viability, T/C (second compound 0.000949 µM, first compound 0.003 µM): 51.2%
viability, T/C (second compound 0.000949 µM, first compound 0.00949 µM): 37.5%
viability, T/C (second compound 0.000949 µM, first compound 0.03 µM): 26.1%
viability, T/C (second compound 0.000949 µM, first compound 0.0949 µM): 15.4%
viability, T/C (second compound 0.000949 µM, first compound 0.3 µM): 9.12%
viability, T/C (second compound 0.003 µM, first compound 0.000949 µM): 35%
viability, T/C (second compound 0.003 µM, first compound 0.003 µM): 27.6%
viability, T/C (second compound 0.003 µM, first compound 0.00949 µM): 21.9%
viability, T/C (second compound 0.003 µM, first compound 0.03 µM): 14.6%
viability, T/C (second compound 0.003 µM, first compound 0.0949 µM): 13.2%
viability, T/C (second compound 0.003 µM, first compound 0.3 µM): 7.92%
viability, T/C (second compound 0.00949 µM, first compound 0.000949 µM): 3.56%
viability, T/C (second compound 0.00949 µM, first compound 0.003 µM): 4.08%
viability, T/C (second compound 0.00949 µM, first compound 0.00949 µM): 4.01%
viability, T/C (second compound 0.00949 µM, first compound 0.03 µM): 4.17%
viability, T/C (second compound 0.00949 µM, first compound 0.0949 µM): 5.08%
viability, T/C (second compound 0.00949 µM, first compound 0.3 µM): 5.25%
viability, T/C (second compound 0.03 µM, first compound 0.000949 µM): 2.41%
viability, T/C (second compound 0.03 µM, first compound 0.003 µM): 2.78%
viability, T/C (second compound 0.03 µM, first compound 0.00949 µM): 2.34%
viability, T/C (second compound 0.03 µM, first compound 0.03 µM): 2.28%
viability, T/C (second compound 0.03 µM, first compound 0.0949 µM): 2.45%
viability, T/C (second compound 0.03 µM, first compound 0.3 µM): 2.64%
viability, T/C (second compound 0.0949 µM, first compound 0.000949 µM): 2.17%
viability, T/C (second compound 0.0949 µM, first compound 0.003 µM): 2.21%
viability, T/C (second compound 0.0949 µM, first compound 0.00949 µM): 2.67%
viability, T/C (second compound 0.0949 µM, first compound 0.03 µM): 2.13%
viability, T/C (second compound 0.0949 µM, first compound 0.0949 µM): 1.61%
viability, T/C (second compound 0.0949 µM, first compound 0.3 µM): 2.1%
viability, T/C (second compound 0.3 µM, first compound 0.000949 µM): 2.15%
viability, T/C (second compound 0.3 µM, first compound 0.003 µM): 1.93%
viability, T/C (second compound 0.3 µM, first compound 0.00949 µM): 1.68%
viability, T/C (second compound 0.3 µM, first compound 0.03 µM): 1.68%
viability, T/C (second compound 0.3 µM, first compound 0.0949 µM): 1.86%
viability, T/C (second compound 0.3 µM, first compound 0.3 µM): 1.52%

C=CC(=O)Nc1cc(Nc2nccc(-c3cn(C)c4ccccc34)n2)c(OC)cc1N(C)CCN(C)C + CCn1c(-c2cccnc2C(C)OC)c2c3cc(ccc31)N1CCOC(CC(NC(=O)C(C(C)C)N(C)C(=O)C3(F)CCN(C(=O)C#CC(C)(C)N(C)C)CC3)C(=O)N3CCCC(N3)C(=O)OCC(C)(C)C2)C1
IC50 (second compound 0.000949 µM): > 1000 nM
IC50 (second compound 0.003 µM): > 1000 nM
IC50 (second compound 0.00949 µM): > 1000 nM
IC50 (second compound 0.03 µM): > 1000 nM
IC50 (second compound 0.0949 µM): > 1000 nM
IC50 (second compound 0.3 µM): > 1000 nM
viability, T/C [1]: 113%
viability, T/C [2]: 98.3%
viability, T/C [3]: 101%
viability, T/C [4]: 106%
viability, T/C [5]: 115%
viability, T/C [6]: 102%
viability, T/C [7]: 104%
viability, T/C [8]: 116%
viability, T/C [9]: 107%
viability, T/C [10]: 104%
viability, T/C [11]: 112%
viability, T/C [12]: 99.5%
viability, T/C [13]: 108%
viability, T/C [14]: 102%
viability, T/C [15]: 108%
viability, T/C [16]: 101%
viability, T/C [17]: 110%
viability, T/C [18]: 95.1%
viability, T/C [19]: 104%
viability, T/C [20]: 102%
viability, T/C [21]: 101%
viability, T/C [22]: 112%
viability, T/C [23]: 112%
viability, T/C [24]: 100%
viability, T/C [25]: 102%
viability, T/C [26]: 99.1%
viability, T/C [27]: 103%
viability, T/C [28]: 105%
viability, T/C [29]: 104%
viability, T/C [30]: 89.8%
viability, T/C [31]: 96.5%
viability, T/C [32]: 85.5%
viability, T/C [33]: 96%
viability, T/C [34]: 92.3%
viability, T/C [35]: 90.9%
viability, T/C [36]: 85.8%
